Data reported in ChEMBL document CHEMBL1201862, “PubChem BioAssay data set” (2004).
Calls of active or inactive are those of the source.

How the values were obtained:
[1] = target: Serine/threonine-protein phosphatase PP1-alpha catalytic subunit (Homo sapiens, UniProt P62136); assay: PP1 phosphatase inhibitors, dose response, biochemical, fluorescence (AID 2394)
[2] = target: Serine/threonine-protein phosphatase (Homo sapiens, UniProt Q9BPW0); assay: PP5 phosphatase inhibitors, dose response, biochemical, fluorescence (AID 2395)
Serine/threonine-protein phosphatase, sequence (Q9BPW0 whole entry): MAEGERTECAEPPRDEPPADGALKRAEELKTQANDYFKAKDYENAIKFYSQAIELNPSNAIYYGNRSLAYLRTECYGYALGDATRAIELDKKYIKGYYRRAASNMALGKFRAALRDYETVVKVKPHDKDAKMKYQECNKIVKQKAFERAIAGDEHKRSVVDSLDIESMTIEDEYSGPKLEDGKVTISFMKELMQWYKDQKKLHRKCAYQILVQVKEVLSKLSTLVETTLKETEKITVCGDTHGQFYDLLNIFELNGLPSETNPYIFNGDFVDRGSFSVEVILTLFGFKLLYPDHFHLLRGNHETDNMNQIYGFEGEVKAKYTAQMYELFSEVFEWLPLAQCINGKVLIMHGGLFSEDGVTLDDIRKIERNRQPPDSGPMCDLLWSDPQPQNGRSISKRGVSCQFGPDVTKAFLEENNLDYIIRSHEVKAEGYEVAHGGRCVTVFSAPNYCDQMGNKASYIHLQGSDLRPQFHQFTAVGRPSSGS

[3] = target: NADPH oxidase 1 (Homo sapiens, UniProt Q9Y5S8); assay: Late-stage luminescence-based cell-based dose response assay to identify inhibitors of NADPH oxidase 1 (NOX1): Purchased analogs 2.; assay type: functional
NADPH oxidase 1, sequence (Q9Y5S8 whole entry): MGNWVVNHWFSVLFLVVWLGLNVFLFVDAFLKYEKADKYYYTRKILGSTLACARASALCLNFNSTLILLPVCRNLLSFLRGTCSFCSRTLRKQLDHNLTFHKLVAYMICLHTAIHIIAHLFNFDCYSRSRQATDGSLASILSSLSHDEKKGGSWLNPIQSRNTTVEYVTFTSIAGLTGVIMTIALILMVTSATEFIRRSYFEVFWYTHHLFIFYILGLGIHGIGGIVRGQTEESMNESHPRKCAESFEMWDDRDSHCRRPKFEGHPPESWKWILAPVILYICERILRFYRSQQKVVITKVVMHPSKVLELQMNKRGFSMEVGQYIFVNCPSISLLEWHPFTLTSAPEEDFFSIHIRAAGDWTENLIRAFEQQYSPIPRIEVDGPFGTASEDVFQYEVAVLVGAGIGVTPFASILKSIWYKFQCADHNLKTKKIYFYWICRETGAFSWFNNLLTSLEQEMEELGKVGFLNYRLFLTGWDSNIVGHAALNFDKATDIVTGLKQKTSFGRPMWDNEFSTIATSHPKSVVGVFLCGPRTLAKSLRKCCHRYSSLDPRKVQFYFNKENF

[4] = Luminescent dose response cell-based high throughput screening assay for inhibitors of the Janus kinase 2 mutant JAK2V617F. [Related pubchem assays: 1446 (Primary screen.), 1521 (Confirmation assay.), 1486 (Counter screen.)]; assay type: functional
[5] = NIH-3T3 fibroblast cytotoxicity, dose response, cytotoxicity control, cell-based, fluorescence, Alamar Blue, secondary assay (AID 2327); assay type: functional;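 note: NIH-3T3 mouse fibroblasts cultured with fluconazole at 8 µg/mL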
[6] = C. albicans growth with fluconazole, confirmation, fluorescence, retest (AID 2467); assay type: functional, cell-based
[7] = THP-1 cell cytotoxicity, dose response, cytotoxicity control for non-replicating M. tuberculosis project (AID 489025); assay type: functional
[8] = HepG2 cell cytotoxicity, dose response, cytotoxicity control for non-replicating M. tuberculosis project (AID 489018); assay type: functional; settings: Mycobacterium tuberculosis
[9] = Vero E6 cell cytotoxicity, dose response, cytotoxicity control for non-replicating M. tuberculosis project, secondary assay (AID 492998); assay type: functional, VeroE6; settings: Vero C1008
[10] = cells; assay type: functional
[11] = target: Heat shock protein HSP 90-alpha (Homo sapiens, UniProt P07900); assay type: functional, organism-based
[12] = test system: INS1; assay: beta cell apoptosis inhibitors, cytokine rescue, dose response, luminescence, retest (AID 449756); assay type: functional, cell-based; settings: Rattus norvegicus;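 note: cell death triggered by IL-1 beta plus TNF-alpha plus IFN-gamma mixture; protective hits raise ATP signal compared with cytokine alone wells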
[13] = test system: Vero; assay: cells; assay type: functional; settings: Chlorocebus sabaeus
[14] = target: Large T antigen (Simian virus 40, UniProt P03070); assay type: functional, Betapolyomavirus macacae;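 note: Confirmatory-stage PubChem screen for compounds that inhibit SV40 T antigen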
Large T antigen, sequence (P03070 whole entry): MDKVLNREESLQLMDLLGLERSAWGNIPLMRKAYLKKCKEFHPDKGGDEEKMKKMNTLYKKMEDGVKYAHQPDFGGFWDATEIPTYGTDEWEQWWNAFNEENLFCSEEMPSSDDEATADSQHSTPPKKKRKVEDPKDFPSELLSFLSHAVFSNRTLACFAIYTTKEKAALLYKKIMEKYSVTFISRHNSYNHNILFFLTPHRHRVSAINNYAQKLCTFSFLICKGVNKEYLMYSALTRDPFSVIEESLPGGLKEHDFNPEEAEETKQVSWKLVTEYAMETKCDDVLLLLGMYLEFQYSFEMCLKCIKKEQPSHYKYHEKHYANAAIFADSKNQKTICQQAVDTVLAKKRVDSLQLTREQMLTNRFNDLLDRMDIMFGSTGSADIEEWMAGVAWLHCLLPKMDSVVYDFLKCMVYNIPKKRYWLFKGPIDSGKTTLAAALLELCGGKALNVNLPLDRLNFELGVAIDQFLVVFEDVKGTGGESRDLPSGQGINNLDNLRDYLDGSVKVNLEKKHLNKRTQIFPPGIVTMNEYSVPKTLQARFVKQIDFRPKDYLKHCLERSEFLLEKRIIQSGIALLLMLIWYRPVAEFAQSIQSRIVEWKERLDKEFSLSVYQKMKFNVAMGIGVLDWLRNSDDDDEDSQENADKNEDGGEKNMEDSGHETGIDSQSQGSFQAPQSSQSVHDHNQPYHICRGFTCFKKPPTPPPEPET

[15] = target: Protein-tyrosine kinase 2-beta (Homo sapiens, UniProt Q14289);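 note: potency of inhibitors of PYK2 kinase phosphorylation of poly-GT substrate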
Protein-tyrosine kinase 2-beta, sequence (Q14289 whole entry): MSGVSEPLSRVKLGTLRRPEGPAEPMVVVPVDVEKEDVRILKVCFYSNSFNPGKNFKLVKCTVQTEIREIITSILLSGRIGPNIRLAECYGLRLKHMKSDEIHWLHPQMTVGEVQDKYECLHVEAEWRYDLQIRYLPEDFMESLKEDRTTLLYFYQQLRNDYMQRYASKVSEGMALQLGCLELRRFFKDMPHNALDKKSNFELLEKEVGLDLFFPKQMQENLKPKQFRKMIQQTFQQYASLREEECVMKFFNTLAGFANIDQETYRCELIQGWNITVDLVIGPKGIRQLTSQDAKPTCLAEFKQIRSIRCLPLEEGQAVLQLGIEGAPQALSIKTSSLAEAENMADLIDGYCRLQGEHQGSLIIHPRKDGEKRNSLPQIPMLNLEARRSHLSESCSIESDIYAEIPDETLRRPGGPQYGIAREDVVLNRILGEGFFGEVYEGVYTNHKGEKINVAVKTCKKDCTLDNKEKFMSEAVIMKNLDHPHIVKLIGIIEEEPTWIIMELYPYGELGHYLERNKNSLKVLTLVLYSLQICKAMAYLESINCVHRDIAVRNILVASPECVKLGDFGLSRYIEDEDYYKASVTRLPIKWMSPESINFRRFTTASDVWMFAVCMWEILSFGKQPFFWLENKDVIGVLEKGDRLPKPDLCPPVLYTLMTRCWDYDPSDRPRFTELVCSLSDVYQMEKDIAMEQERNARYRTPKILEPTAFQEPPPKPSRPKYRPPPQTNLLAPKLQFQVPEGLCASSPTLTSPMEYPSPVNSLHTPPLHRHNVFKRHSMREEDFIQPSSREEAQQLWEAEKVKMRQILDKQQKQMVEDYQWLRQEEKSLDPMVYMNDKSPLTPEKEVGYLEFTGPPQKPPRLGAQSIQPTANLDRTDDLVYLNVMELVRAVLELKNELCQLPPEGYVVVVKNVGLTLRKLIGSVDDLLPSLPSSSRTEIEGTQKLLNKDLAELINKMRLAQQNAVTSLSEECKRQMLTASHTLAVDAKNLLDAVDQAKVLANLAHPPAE

[16] = target: Ephrin type-A receptor 4 (Mus musculus, UniProt Q03137); assay: inhibitors of EphA4 binding to KYL peptide, primary screen, biochemical, colorimetric, mouse EphA4 (AID 689); assay type: functional
Ephrin type-A receptor 4, sequence (Q03137 whole entry): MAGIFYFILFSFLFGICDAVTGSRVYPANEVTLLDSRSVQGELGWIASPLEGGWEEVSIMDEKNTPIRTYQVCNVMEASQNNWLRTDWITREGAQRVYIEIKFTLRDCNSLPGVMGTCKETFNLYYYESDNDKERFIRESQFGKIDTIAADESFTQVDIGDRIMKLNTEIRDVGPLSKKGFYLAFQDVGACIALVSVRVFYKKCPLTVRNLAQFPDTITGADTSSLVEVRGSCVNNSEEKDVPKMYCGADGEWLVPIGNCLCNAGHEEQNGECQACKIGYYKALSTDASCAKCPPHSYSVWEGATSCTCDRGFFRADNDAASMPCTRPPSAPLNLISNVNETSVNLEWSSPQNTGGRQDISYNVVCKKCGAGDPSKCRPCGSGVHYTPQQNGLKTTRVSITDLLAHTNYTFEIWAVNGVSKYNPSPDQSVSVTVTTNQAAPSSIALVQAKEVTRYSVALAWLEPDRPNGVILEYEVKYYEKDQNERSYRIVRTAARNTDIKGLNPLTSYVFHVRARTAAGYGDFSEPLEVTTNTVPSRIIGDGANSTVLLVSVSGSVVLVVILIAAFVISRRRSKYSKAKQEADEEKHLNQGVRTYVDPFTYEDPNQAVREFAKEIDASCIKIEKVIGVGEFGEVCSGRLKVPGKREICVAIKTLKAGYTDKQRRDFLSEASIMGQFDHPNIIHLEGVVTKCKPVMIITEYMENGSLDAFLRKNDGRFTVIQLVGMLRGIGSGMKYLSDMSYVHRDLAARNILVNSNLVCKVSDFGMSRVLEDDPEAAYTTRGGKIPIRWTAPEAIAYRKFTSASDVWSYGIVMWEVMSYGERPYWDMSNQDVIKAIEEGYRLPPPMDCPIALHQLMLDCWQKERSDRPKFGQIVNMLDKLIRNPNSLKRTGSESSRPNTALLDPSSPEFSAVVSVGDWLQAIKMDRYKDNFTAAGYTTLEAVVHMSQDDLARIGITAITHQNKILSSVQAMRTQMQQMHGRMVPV

Serine/threonine-protein phosphatase PP1-alpha catalytic subunit, sequence (P62136 whole entry): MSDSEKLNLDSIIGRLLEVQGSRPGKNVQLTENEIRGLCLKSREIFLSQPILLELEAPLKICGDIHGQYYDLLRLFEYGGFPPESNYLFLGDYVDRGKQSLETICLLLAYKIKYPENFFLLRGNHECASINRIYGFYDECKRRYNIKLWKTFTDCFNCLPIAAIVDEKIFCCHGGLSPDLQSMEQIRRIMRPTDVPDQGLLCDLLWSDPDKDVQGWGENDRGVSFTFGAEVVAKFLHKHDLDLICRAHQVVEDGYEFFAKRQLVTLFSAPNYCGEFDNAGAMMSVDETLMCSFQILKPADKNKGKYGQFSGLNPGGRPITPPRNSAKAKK

## COc1ccc(Cn2c(N)c(C(=O)NCc3ccco3)c3nc4ccccc4nc32)cc1OC
[1]
  IC50: > 67 µM (not active)
[2]
  IC50: 46.5 µM (not active)

## Fc1nc(F)c(F)c(N/N=C/c2ccc(Br)cc2)c1F
[3]
  IC50: > 17 µM (not active)

## COc1cccc(F)c1C(C[N+](=O)[O-])c1c(N)n(C)c(=O)n(C)c1=O (stereo unspecified)
[4]
  IC50: 1.06 µM (active)
[5]
  EC50: 5.27 µM (active)
[6]
  EC50: 0.779 µM (active)
[7]
  CC50: 7.28 µM (active)
[8]
  CC50: 16.2 µM (active)
[9]
  CC50: 4.73 µM (active)
[10]
  IC50: 5.94 µM (active)
[11]
  AC50: 3.91 µM (active)
[12]
  AC50: 7.85 µM (active)
[13]
  CC50: 8.24 µM (active)

## CCc1ccc2nc3n[nH]c(N)c3cc2c1
[14]
  IC50: 13.5 µM (active)
[15]
  IC50: 24.9 µM (not active)

## Cc1cc(C=C2C(=O)N(C)C(=S)N(C)C2=O)c(C)n1C1CCCCC1
[16]
  IC50: 5.14 µM (active)
